According to ChEMBL document CHEMBL1123820 (J Med Chem, 1987):
Calls of active or inactive are those of the source. The calls are words filed in the database; no cut-off is given here. Where a SMILES comes first, the peptide text is derived from it. [ ]: non-standard residue; d: D form. The star is where a group is joined. Orn = NCCC[C@H](N)C(=O)O; OBn = c1ccc(CO*)cc1

Key:
[1] = species: Cavia porcellus; assay: Relative activity was measured in vitro with respect to substance P (SP) in guinea pig ileum at a concentration of 10 uM; Inactive; format: functional
[2] = species: Rattus norvegicus; assay: Relative activity was measured in vitro with respect to substance P (SP) in rat colon muscularis mucosae at a concentration of 10 uM; Inactive; format: functional; settings: Muscularis mucosa
[3] = species: Cavia porcellus; assay: Relative activity was measured in vitro with respect to substance P (SP) in guinea pig ileum; format: functional
[4] = species: Rattus norvegicus; assay: Relative activity was measured in vitro with respect to substance P (SP) in rat colon muscularis mucosae; format: functional, Muscularis mucosa

Compound	Relative activity [1]	Relative activity [2]	Relative activity [3]	Relative activity [4]
CC(C)C[C@H](NC(=O)CNC(=O)[C@H](Cc1ccccc1)NC(=O)[C@H](Cc1ccccc1)NC(=O)[C@@H](N)CCCN)C(=O)N[C@@H](CCCCN)C(N)=O (H-[Orn]FFGLK-NH2)	inactive	inactive		
CC(C)C[C@H](NC(=O)CNC(=O)[C@H](Cc1ccccc1)NC(=O)[C@H](Cc1ccccc1)NC(=O)[C@@H](N)CCCN)C(=O)N[C@@H](CCC(N)=O)C(N)=O (H-[Orn]FFGLQ-NH2)			0.0022	<0.01
CC(C)C[C@H](NC(=O)CNC(=O)[C@H](Cc1ccccc1)NC(=O)[C@H](Cc1ccccc1)NC(=O)[C@@H](N)CCCN)C(=O)N[C@@H](CCC(=O)O)C(N)=O (H-[Orn]FFGLE-NH2)			0.00058	<0.01
CC(C)C[C@H](NC(=O)CNC(=O)[C@H](Cc1ccccc1)NC(=O)[C@H](Cc1ccccc1)NC(=O)[C@@H](N)CCCN)C(=O)N[C@@H](CCC(=O)OCc1ccccc1)C(N)=O (H-[Orn]FFGLE(OBn)-NH2)			0.14	0.61
H-QFFGLM-NH2			0.3	0.076
CSCC[C@H](NC(=O)[C@H](CC(C)C)NC(=O)CNC(=O)[C@H](Cc1ccccc1)NC(=O)[C@H](Cc1ccccc1)NC(=O)[C@@H](N)CCCN)C(N)=O (H-[Orn]FFGLM-NH2)			0.39	0.36
